Measured values taken from the supplement of paper PMC10307832.

Assays:
Assay in all cases: relative viability (nuclei count vs DMSO), 5 days (fraction); higher = more cells survive
[1] = compound: C1CC(C2=C(C1)C3=C(N2)C=CC(=C3)Cl)C(=O)N [Selisistat] + COc1cc2c(Oc3ccc(NC(=O)C4(C(=O)Nc5ccc(F)cc5)CC4)cc3F)ccnc2cc1OCCCN1CCOCC1 [Foretinib] (partner 0.25 µM)
In short: (§1)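 Dosing by pin tool came one day after lung cancer cell lines were seeded in 1536-well plates, using either one drug or a fixed anchor-drug dose plus five library-drug doses (not always all listed) in √10 steps. After 5 days, nuclei were counted on 4× images. Relative viability is treated-well nuclei count divided by vehicle-well nuclei count, and values are medians of duplicate plates.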

[2] = compound: c1ccc2c(CCNc3ccc(Nc4ccncc4)cc3)c[nH]c2c1 [Serdemetan] + COc1cccc2cc(-c3nc([C@H]4CC[C@H](C(=O)O)CC4)n4ncnc(N)c34)[nH]c12 [OSI-027] (partner 0.5 µM)
In short: as §1

[3] = compound: c1ccc2c(CCNc3ccc(Nc4ccncc4)cc3)c[nH]c2c1 [Serdemetan] + CS(=O)(=O)CCNCc1ccc(-c2ccc3ncnc(Nc4ccc(OCc5cccc(F)c5)c(Cl)c4)c3c2)o1 [Lapatinib] (partner 2 µM)
In short: as §1

[4] = compound: c1ccc2c(CCNc3ccc(Nc4ccncc4)cc3)c[nH]c2c1 [Serdemetan] + Nc1nc2[nH]cc(CCc3ccc(C(=O)N[C@@H](CCC(=O)O)C(=O)O)cc3)c2c(=O)[nH]1 [Pemetrexed] (partner 0.2 µM)
In short: as §1

Row | Cell Line | relative viability ([1]; first compound 0.4 µM) | relative viability ([1]; first compound 1.265 µM) | relative viability ([1]; first compound 4 µM) | relative viability ([1]; first compound 12.65 µM) | relative viability ([1]; first compound 40 µM) | relative viability ([2]; first compound 0.04 µM) | relative viability ([2]; first compound 0.1265 µM) | relative viability ([2]; first compound 0.4 µM) | relative viability ([2]; first compound 1.265 µM) | relative viability ([2]; first compound 4 µM) | relative viability ([3]; first compound 0.04 µM) | relative viability ([3]; first compound 0.1265 µM) | relative viability ([3]; first compound 0.4 µM) | relative viability ([3]; first compound 1.265 µM) | relative viability ([3]; first compound 4 µM) | relative viability ([4]; first compound 0.04 µM) | relative viability ([4]; first compound 0.1265 µM) | relative viability ([4]; first compound 0.4 µM) | relative viability ([4]; first compound 1.265 µM) | relative viability ([4]; first compound 4 µM)
1 | HCC-366 | 0.837 | 0.892 | 0.755 | 0.862 | 0.957 | 0.87 | 0.858 | 0.733 | 0.173 | 0.122 | 1.07 | 0.811 | 0.902 | 0.0523 | 0.0553 | 0.177 | 0.135 | 0.15 | 0.0885 | 0.055
2 | HCC-827 | 1.17 | 1.09 | 1.02 | 0.9 | 1.08 | 0.787 | 0.743 | – | 0.696 | 0.627 | 0.168 | 0.178 | – | 0.188 | 0.173 | 0.218 | 0.191 | – | 0.2 | 0.227
3 | HOP-62 | 1.09 | 1.19 | 1.17 | 0.97 | 1.12 | 0.869 | 0.842 | 0.856 | 0.71 | 0.758 | 0.862 | 1.06 | 0.937 | 0.791 | 0.89 | 0.293 | 0.368 | 0.307 | 0.333 | 0.365
4 | IA-LM | 1.21 | 1.07 | 1.19 | 0.902 | 1.19 | – | – | – | – | – | 0.723 | 1 | 0.655 | 0.584 | 0.322 | – | – | – | – | –
5 | LC-2-ad | 1.14 | – | 0.706 | 0.918 | 0.889 | 0.716 | 0.85 | 0.877 | 0.659 | 0.763 | 0.916 | 1 | 0.954 | – | 0.913 | 0.255 | 0.231 | 0.269 | 0.255 | 0.267
6 | LCLC-97TM1 | 0.861 | 0.849 | – | 0.907 | 0.862 | 0.371 | 0.553 | 0.412 | – | 0.528 | 0.776 | 1.16 | 1.11 | 0.674 | 0.87 | 0.147 | 0.196 | 0.188 | 0.153 | 0.197
7 | LCLC-103H | 0.691 | 0.851 | 0.748 | 0.683 | 0.805 | 0.431 | 0.551 | 0.479 | 0.537 | 0.406 | – | – | – | – | – | 0.447 | 0.49 | 0.481 | 0.386 | 0.454
8 | LK-2 | 0.955 | 1.04 | 1.45 | 0.955 | 1.01 | 0.205 | 0.23 | 0.216 | 0.193 | 0.214 | 0.899 | 0.873 | 1.03 | 0.884 | 0.757 | 0.261 | 0.206 | 0.225 | 0.265 | 0.241
9 | LOU-NH91 | 1.01 | 0.938 | 0.872 | 0.928 | 0.896 | 0.703 | 0.681 | 0.456 | 0.692 | 0.784 | 0.773 | 0.83 | – | 0.606 | 0.83 | 0.394 | 0.383 | – | – | 0.419
10 | LU99A | 0.825 | 0.744 | 0.774 | 0.773 | 0.801 | 0.282 | 0.313 | 0.275 | 0.216 | 0.29 | 1.03 | 0.927 | 1.07 | 0.363 | 0.229 | 0.177 | 0.182 | 0.345 | 0.15 | 0.16
11 | LXF-289 | 1.03 | 1.02 | 0.868 | 0.947 | 0.997 | 0.802 | 0.847 | 0.811 | 0.691 | 0.729 | 0.857 | 0.885 | 0.851 | 0.827 | 0.759 | 0.894 | 0.989 | 0.86 | 0.76 | 0.795
12 | NCI-H441 | 0.936 | 1.12 | 0.961 | 0.951 | 0.817 | 0.581 | 0.802 | 0.622 | 0.347 | 0.441 | – | – | – | – | – | 0.262 | 0.293 | 0.257 | 0.202 | 0.225
13 | NCI-H522 | – | – | – | – | – | 0.814 | 0.704 | 0.887 | – | 0.712 | – | – | – | – | – | 0.971 | 0.857 | 1.04 | 0.933 | 0.98
14 | NCI-H727 | 0.883 | 1.05 | – | 1.04 | 0.872 | 0.69 | 0.681 | 0.567 | 0.466 | 0.499 | 0.768 | 0.919 | 0.758 | 0.797 | 0.416 | – | – | – | – | –
15 | NCI-H1299 | 1.16 | 1.13 | 1.15 | 1.07 | 1.11 | – | – | – | – | – | 0.939 | 0.984 | 0.985 | 0.78 | 0.767 | – | – | – | – | –
16 | NCI-H1623 | 0.963 | 0.782 | 0.614 | 0.918 | 0.846 | 0.457 | 0.395 | 0.359 | 0.389 | 0.395 | – | – | – | – | – | – | – | – | – | –
17 | NCI-H1648 | – | – | – | – | – | – | 0.255 | 0.335 | 0.195 | 0.256 | – | – | – | – | – | – | 0.714 | 0.624 | 0.554 | 0.476
18 | NCI-H1703 | 0.338 | 0.336 | 0.365 | 0.356 | 0.313 | – | – | – | – | – | 1.38 | 1.05 | 1.07 | 1.09 | 0.885 | – | – | – | – | –
19 | NCI-H1792 | – | – | – | – | – | 0.752 | 0.718 | 0.677 | 0.42 | 0.426 | 0.854 | 0.863 | 0.86 | 0.646 | 0.676 | 0.74 | 0.88 | 0.761 | 0.38 | 0.404
20 | NCI-H2342 | 0.997 | 0.986 | 0.896 | 1.09 | 1.07 | 0.66 | 0.648 | 0.731 | 0.666 | 0.512 | – | – | – | – | – | 0.789 | 0.752 | 0.835 | 0.516 | 0.641
21 | SW 900 | 0.921 | 0.778 | 0.798 | 0.955 | 0.977 | 0.757 | 0.602 | 0.632 | 0.381 | 0.37 | – | – | – | – | – | 0.461 | 0.51 | 0.485 | 0.324 | 0.41
